Measured values as given in paper PMC7104723 (Cell Research, 2020).
Non-standard residues stand in square brackets, D forms with d. Residues, ends and D or L forms follow the SMILES beside them. *: point of attachment. X1 = CC(C)CCC[C@@H](C)[C@H]1CC[C@H]2[C@@H]3CC=C4C[C@@H](OC(=O)C*)CC[C@]4(C)[C@H]3CC[C@]12C; Palmitoyl = CCCCCCCCCCCCCCCC(=O)*; PEG4 = NCCOCCOCCOCCOCCC(=O)O

How the values were obtained:
SARS-CoV-2 PsV = conditions: PsV, 72 h
SARS-CoV-2 S protein = SARS-CoV-2 S protein (Severe acute respiratory syndrome coronavirus 2, UniProt P0DTC2); experiment: cell-based; format: cell-based

Which IC50 (SARS-CoV-2 PsV) does the source give for `CC[C@H](C)[C@H](NC(=O)[C@H](C)NC(=O)[C@H](CCC(=O)O)NC(=O)[C@H](CCC(=O)O)NC(=O)[C@H](CC(C)C)NC(=O)[C@H](CCCCN)NC(=O)[C@H](CCCCN)NC(=O)[C@H](CCSC)NC(=O)[C@H](CCC(=O)O)NC(=O)[C@H](Cc1ccc(O)cc1)NC(=O)[C@H](CCC(=O)O)NC(=O)[C@H](CC(C)C)NC(=O)[C@H](CC(=O)O)NC(=O)[C@H](CC(C)C)NC(=O)[C@H](Cc1ccccc1)NC(=O)[C@@H](NC(=O)[C@@H](NC(=O)[C@H](CC(N)=O)NC(=O)[C@@H](NC(=O)[C@H](CCC(N)=O)NC(=O)[C@H](CC(=O)O)NC(=O)[C@H](CC(C)C)NC(=O)[C@@H](N)CO)[C@@H](C)CC)C(C)C)[C@@H](C)O)C(=O)N[C@@H](CCCCN)C(=O)N[C@@H](CCCCN)C(=O)N[C@@H](CC(C)C)C(=O)N[C@@H](CCC(=O)O)C(=O)N[C@@H](CCC(=O)O)C(=O)N[C@@H](CO)C(=O)N[C@@H](Cc1ccc(O)cc1)C(=O)N[C@H](C(=O)N[C@@H](CC(=O)O)C(=O)N[C@@H](CC(C)C)C(=O)N[C@@H](CCCCN)C(=O)N[C@@H](CCC(=O)O)C(=O)N[C@@H](CC(C)C)C(=O)N[C@@H](CSCC(=O)O[C@H]1CC[C@@]2(C)C(=CC[C@H]3[C@@H]4CC[C@H]([C@H](C)CCCC(C)C)[C@@]4(C)CC[C@@H]32)C1)C(N)=O)[C@@H](C)CC` [EK1C1] (H-SLDQINVTFLDLEYEMKKLEEAIKKLEESYIDLKELC(X1)-NH2) here?
Its IC50 is 480 nM.

`CC[C@H](C)[C@H](NC(=O)[C@H](C)NC(=O)[C@H](CCC(=O)O)NC(=O)[C@H](CCC(=O)O)NC(=O)[C@H](CC(C)C)NC(=O)[C@H](CCCCN)NC(=O)[C@H](CCCCN)NC(=O)[C@H](CCSC)NC(=O)[C@H](CCC(=O)O)NC(=O)[C@H](Cc1ccc(O)cc1)NC(=O)[C@H](CCC(=O)O)NC(=O)[C@H](CC(C)C)NC(=O)[C@H](CC(=O)O)NC(=O)[C@H](CC(C)C)NC(=O)[C@H](Cc1ccccc1)NC(=O)[C@@H](NC(=O)[C@@H](NC(=O)[C@H](CC(N)=O)NC(=O)[C@@H](NC(=O)[C@H](CCC(N)=O)NC(=O)[C@H](CC(=O)O)NC(=O)[C@H](CC(C)C)NC(=O)[C@@H](N)CO)[C@@H](C)CC)C(C)C)[C@@H](C)O)C(=O)N[C@@H](CCCCN)C(=O)N[C@@H](CCCCN)C(=O)N[C@@H](CC(C)C)C(=O)N[C@@H](CCC(=O)O)C(=O)N[C@@H](CCC(=O)O)C(=O)N[C@@H](CO)C(=O)N[C@@H](Cc1ccc(O)cc1)C(=O)N[C@H](C(=O)N[C@@H](CC(=O)O)C(=O)N[C@@H](CC(C)C)C(=O)N[C@@H](CCCCN)C(=O)N[C@@H](CCC(=O)O)C(=O)N[C@@H](CC(C)C)C(=O)NCC(=O)N[C@@H](CO)C(=O)NCC(=O)N[C@@H](CSCC(=O)O[C@H]1CC[C@@]2(C)C(=CC[C@H]3[C@@H]4CC[C@H]([C@H](C)CCCC(C)C)[C@@]4(C)CC[C@@H]32)C1)C(N)=O)[C@@H](C)CC` [EK1C2] was tested. Which IC50 (SARS-CoV-2 PsV) did it give?
The IC50 was 419 nM.

How did the “Fold more potent than EK1C1, SARS-CoV-2 S-mediated cell–cell fusion” value (SARS-CoV-2 S protein) turn out when `CC[C@H](C)[C@H](NC(=O)[C@H](C)NC(=O)[C@H](CCC(=O)O)NC(=O)[C@H](CCC(=O)O)NC(=O)[C@H](CC(C)C)NC(=O)[C@H](CCCCN)NC(=O)[C@H](CCCCN)NC(=O)[C@H](CCSC)NC(=O)[C@H](CCC(=O)O)NC(=O)[C@H](Cc1ccc(O)cc1)NC(=O)[C@H](CCC(=O)O)NC(=O)[C@H](CC(C)C)NC(=O)[C@H](CC(=O)O)NC(=O)[C@H](CC(C)C)NC(=O)[C@H](Cc1ccccc1)NC(=O)[C@@H](NC(=O)[C@@H](NC(=O)[C@H](CC(N)=O)NC(=O)[C@@H](NC(=O)[C@H](CCC(N)=O)NC(=O)[C@H](CC(=O)O)NC(=O)[C@H](CC(C)C)NC(=O)[C@@H](N)CO)[C@@H](C)CC)C(C)C)[C@@H](C)O)C(=O)N[C@@H](CCCCN)C(=O)N[C@@H](CCCCN)C(=O)N[C@@H](CC(C)C)C(=O)N[C@@H](CCC(=O)O)C(=O)N[C@@H](CCC(=O)O)C(=O)N[C@@H](CO)C(=O)N[C@@H](Cc1ccc(O)cc1)C(=O)N[C@H](C(=O)N[C@@H](CC(=O)O)C(=O)N[C@@H](CC(C)C)C(=O)N[C@@H](CCCCN)C(=O)N[C@@H](CCC(=O)O)C(=O)N[C@@H](CC(C)C)C(=O)NCC(=O)N[C@@H](CO)C(=O)NCC(=O)NCCOCCOCCOCCOCCC(=O)N[C@@H](CSCC(=O)O[C@H]1CC[C@@]2(C)C(=CC[C@H]3[C@@H]4CC[C@H]([C@H](C)CCCC(C)C)[C@@]4(C)CC[C@@H]32)C1)C(N)=O)[C@@H](C)CC` [EK1C3] was run?
The value was 4 fold.

And the IC50 (SARS-CoV-2 PsV)?
Its IC50 is 86.4 nM.

`CC[C@H](C)[C@H](NC(=O)[C@H](C)NC(=O)[C@H](CCC(=O)O)NC(=O)[C@H](CCC(=O)O)NC(=O)[C@H](CC(C)C)NC(=O)[C@H](CCCCN)NC(=O)[C@H](CCCCN)NC(=O)[C@H](CCSC)NC(=O)[C@H](CCC(=O)O)NC(=O)[C@H](Cc1ccc(O)cc1)NC(=O)[C@H](CCC(=O)O)NC(=O)[C@H](CC(C)C)NC(=O)[C@H](CC(=O)O)NC(=O)[C@H](CC(C)C)NC(=O)[C@H](Cc1ccccc1)NC(=O)[C@@H](NC(=O)[C@@H](NC(=O)[C@H](CC(N)=O)NC(=O)[C@@H](NC(=O)[C@H](CCC(N)=O)NC(=O)[C@H](CC(=O)O)NC(=O)[C@H](CC(C)C)NC(=O)[C@@H](N)CO)[C@@H](C)CC)C(C)C)[C@@H](C)O)C(=O)N[C@@H](CCCCN)C(=O)N[C@@H](CCCCN)C(=O)N[C@@H](CC(C)C)C(=O)N[C@@H](CCC(=O)O)C(=O)N[C@@H](CCC(=O)O)C(=O)N[C@@H](CO)C(=O)N[C@@H](Cc1ccc(O)cc1)C(=O)N[C@H](C(=O)N[C@@H](CC(=O)O)C(=O)N[C@@H](CC(C)C)C(=O)N[C@@H](CCCCN)C(=O)N[C@@H](CCC(=O)O)C(=O)N[C@@H](CC(C)C)C(=O)NCC(=O)N[C@@H](CO)C(=O)NCC(=O)N[C@@H](CO)C(=O)NCC(=O)NCCOCCOCCOCCOCCOCCOCCOCCOCCC(=O)N[C@@H](CSCC(=O)O[C@H]1CC[C@@]2(C)C(=CC[C@H]3[C@@H]4CC[C@H]([C@H](C)CCCC(C)C)[C@@]4(C)CC[C@@H]32)C1)C(N)=O)[C@@H](C)CC` [EK1C5] was tested. Which IC50 (SARS-CoV-2 PsV) did it give?
Its IC50 is 31.3 nM.

Which IC50 (SARS-CoV-2 PsV) does the source give for `CC[C@H](C)[C@H](NC(=O)[C@H](C)NC(=O)[C@H](CCC(=O)O)NC(=O)[C@H](CCC(=O)O)NC(=O)[C@H](CC(C)C)NC(=O)[C@H](CCCCN)NC(=O)[C@H](CCCCN)NC(=O)[C@H](CCSC)NC(=O)[C@H](CCC(=O)O)NC(=O)[C@H](Cc1ccc(O)cc1)NC(=O)[C@H](CCC(=O)O)NC(=O)[C@H](CC(C)C)NC(=O)[C@H](CC(=O)O)NC(=O)[C@H](CC(C)C)NC(=O)[C@H](Cc1ccccc1)NC(=O)[C@@H](NC(=O)[C@@H](NC(=O)[C@H](CC(N)=O)NC(=O)[C@@H](NC(=O)[C@H](CCC(N)=O)NC(=O)[C@H](CC(=O)O)NC(=O)[C@H](CC(C)C)NC(=O)[C@@H](N)CO)[C@@H](C)CC)C(C)C)[C@@H](C)O)C(=O)N[C@@H](CCCCN)C(=O)N[C@@H](CCCCN)C(=O)N[C@@H](CC(C)C)C(=O)N[C@@H](CCC(=O)O)C(=O)N[C@@H](CCC(=O)O)C(=O)N[C@@H](CO)C(=O)N[C@@H](Cc1ccc(O)cc1)C(=O)N[C@H](C(=O)N[C@@H](CC(=O)O)C(=O)N[C@@H](CC(C)C)C(=O)N[C@@H](CCCCN)C(=O)N[C@@H](CCC(=O)O)C(=O)N[C@@H](CC(C)C)C(=O)NCC(=O)N[C@@H](CO)C(=O)NCC(=O)N[C@@H](CO)C(=O)NCC(=O)NCCOCCOCCOCCOCCOCCOCCOCCOCCOCCOCCOCCOCCC(=O)N[C@@H](CSCC(=O)O[C@H]1CC[C@@]2(C)C(=CC[C@H]3[C@@H]4CC[C@H]([C@H](C)CCCC(C)C)[C@@]4(C)CC[C@@H]32)C1)C(N)=O)[C@@H](C)CC` [EK1C6] here?
Its IC50 is 77.4 nM.

`CC[C@H](C)[C@H](NC(=O)[C@H](C)NC(=O)[C@H](CCC(=O)O)NC(=O)[C@H](CCC(=O)O)NC(=O)[C@H](CC(C)C)NC(=O)[C@H](CCCCN)NC(=O)[C@H](CCCCN)NC(=O)[C@H](CCSC)NC(=O)[C@H](CCC(=O)O)NC(=O)[C@H](Cc1ccc(O)cc1)NC(=O)[C@H](CCC(=O)O)NC(=O)[C@H](CC(C)C)NC(=O)[C@H](CC(=O)O)NC(=O)[C@H](CC(C)C)NC(=O)[C@H](Cc1ccccc1)NC(=O)[C@@H](NC(=O)[C@@H](NC(=O)[C@H](CC(N)=O)NC(=O)[C@@H](NC(=O)[C@H](CCC(N)=O)NC(=O)[C@H](CC(=O)O)NC(=O)[C@H](CC(C)C)NC(=O)[C@@H](N)CO)[C@@H](C)CC)C(C)C)[C@@H](C)O)C(=O)N[C@@H](CCCCN)C(=O)N[C@@H](CCCCN)C(=O)N[C@@H](CC(C)C)C(=O)N[C@@H](CCC(=O)O)C(=O)N[C@@H](CCC(=O)O)C(=O)N[C@@H](CO)C(=O)N[C@@H](Cc1ccc(O)cc1)C(=O)N[C@H](C(=O)N[C@@H](CC(=O)O)C(=O)N[C@@H](CC(C)C)C(=O)N[C@@H](CCCCN)C(=O)N[C@@H](CCC(=O)O)C(=O)N[C@@H](CC(C)C)C(=O)NCC(=O)N[C@@H](CO)C(=O)NCC(=O)N[C@@H](CO)C(=O)NCC(=O)NCCOCCOCCOCCOCCOCCOCCOCCOCCOCCOCCOCCOCCOCCOCCOCCOCCOCCOCCOCCOCCOCCOCCOCCOCCC(=O)N[C@@H](CSCC(=O)O[C@H]1CC[C@@]2(C)C(=CC[C@H]3[C@@H]4CC[C@H]([C@H](C)CCCC(C)C)[C@@]4(C)CC[C@@H]32)C1)C(N)=O)[C@@H](C)CC` [EK1C7] was tested. Which IC50 (SARS-CoV-2 PsV) did it give?
The IC50 was 84.4 nM.

Which “Inhibition of SARS-CoV-2 mediated cell–cell fusion at 2.5 μM” value (SARS-CoV-2 S protein) does the source give for `CCCCCCCCCCCCCCCC(=O)SC[C@H](NC(=O)CCOCCOCCOCCOCCNC(=O)[C@H](CC(C)C)NC(=O)[C@H](CCC(=O)O)NC(=O)[C@H](CCCCN)NC(=O)[C@H](CC(C)C)NC(=O)[C@H](CC(=O)O)NC(=O)[C@@H](NC(=O)[C@H](Cc1ccc(O)cc1)NC(=O)[C@H](CO)NC(=O)[C@H](CCC(=O)O)NC(=O)[C@H](CCC(=O)O)NC(=O)[C@H](CC(C)C)NC(=O)[C@H](CCCCN)NC(=O)[C@H](CCCCN)NC(=O)[C@@H](NC(=O)[C@H](C)NC(=O)[C@H](CCC(=O)O)NC(=O)[C@H](CCC(=O)O)NC(=O)[C@H](CC(C)C)NC(=O)[C@H](CCCCN)NC(=O)[C@H](CCCCN)NC(=O)[C@H](CCSC)NC(=O)[C@H](CCC(=O)O)NC(=O)[C@H](Cc1ccc(O)cc1)NC(=O)[C@H](CCC(=O)O)NC(=O)[C@H](CC(C)C)NC(=O)[C@H](CC(=O)O)NC(=O)[C@H](CC(C)C)NC(=O)[C@H](Cc1ccccc1)NC(=O)[C@@H](NC(=O)[C@@H](NC(=O)[C@H](CC(N)=O)NC(=O)[C@@H](NC(=O)[C@H](CCC(N)=O)NC(=O)[C@H](CC(=O)O)NC(=O)[C@H](CC(C)C)NC(=O)[C@@H](N)CO)[C@@H](C)CC)C(C)C)[C@@H](C)O)[C@@H](C)CC)[C@@H](C)CC)C(N)=O` [EK1P] (H-SLDQINVTFLDLEYEMKKLEEAIKKLEESYIDLKEL[PEG4]C(Palmitoyl)-NH2) here?
The value was “completely inhibit”.
